Data from patent publication US9040501B2, “Compositions and methods for treating cancer” (Eisai Inc., priority 2009, dated 2015).
Read-outs that look alike come from different tables or passages of the source.

Experiments:
CDA = CDA (Homo sapiens (Human), UniProt P32320); details: deamination by CDA; Chabot et al. 1983, Bouffard et al. 1993; cited from earlier work
CDA from human liver = CDA from human liver (Homo sapiens (Human), UniProt P32320); details: Wentworth and Wolfenden 1975; cited from earlier work
cytidine deaminase (CDA) = cytidine deaminase (CDA) (Homo sapiens (Human), UniProt P32320); test: Effect of ER-876437 on the half-life of gemcitabine in the presence of CDA in Tris-HCl buffer at 37° C.; format: biochemical; parameters: half-life: dose or concentration left out as unconfirmed; details: for half-life: cytidine deaminase (CDA) in Tris-HCl buffer, read-out: Estimated T1/2 of gemcitabine; for reduction in gemcitabine concentration: gemcitabine alone, absence of CDA, Tris-HCl buffer at 37° C., 10 hours
Procedure: This Example employed a Phenomenex Luna C18(2) HPLC column (100 Å 4.6×250 mm 5 μm). The solvent delivery system employed an HPLC quaternary pump, low pressure mixing. An autosampler having a variable loop, 0.1 to 100 μL range and temperature controlled thermostat was used. The UV detector can employ a dual wavelength detector, a diode array detector, a variable wavelength detector or equivalent, and can be recorded using chromatographic software (e.g., Waters Empower 2 Build 2154, Agilent ChemStation software version A.09.03 or higher for HPLC or equivalent). The analytical balance employed was capable of weighing ±0.1 mg. Degassed HPLC grade water and degassed HPLC grade acetonitrile were used as solvents for the mobile phases.
Gemcitabine Standard Control: 0.2 mM gemcitabine control was prepared by weighing […] of gemcitabine in a 10 mL volumetric flask. […] Solution was labeled as gemcitabine stock solution.

[1] = system: A2780 human ovarian cancer xenograft; test: In vivo efficacy study in A2780 human ovarian cancer xenograft model; parameters: species or system female nude mice; details: qdx5 for two weeks
Procedure: Animals were dosed daily from Monday to Friday for two weeks.
Female nude mice (NU/NU, strain code 088, 6 weeks old, Charles River Laboratory) were implanted subcutaneously with 5×10^6 A2780 cancer cells per mouse. On day 13 when the tumors were approximately 150 mm^3, treatment started as described in Table 9.
Tumor volume and regressions were followed over time. Tumor volume was calculated by (length×width^2)/2. Note that a complete regression was defined as no measurable tumor for at least 3 consecutive measurements; while a partial regression was defined as tumor shrinkage to equal or less than 50% of original tumor volume for 3 consecutive measurements. Tumor growth delay (TGD) was defined as the median number of days for the control and treatment groups to grow to 342.14 mm^3. The average tumor volume on the first day of treatment (day 13) is 171.07 mm^3.

cytidine deaminase (CDA), sequence (P32320 whole entry): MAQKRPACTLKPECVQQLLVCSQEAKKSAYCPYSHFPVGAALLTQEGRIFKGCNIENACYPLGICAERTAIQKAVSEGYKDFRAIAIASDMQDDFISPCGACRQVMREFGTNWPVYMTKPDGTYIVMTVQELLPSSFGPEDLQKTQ
CDA from human liver, sequence (P32320 whole entry): as above
CDA, sequence (P32320 whole entry): as above

Compound: Nc1ncn([C@@H]2O[C@H](CO)[C@@H](O)[C@H]2O)c(=O)n1 [5-azacytidine, 4-Amino-1-(β-D-ribofuranosyl)-1,3,5-triazin-2(1H)-one]
- Km (CDA): 216 ± 51 µM
- Km (CDA from human liver): 58 µM

Compound: Nc1cnn([C@@H]2O[C@H](CO)[C@@H](O)[C@H]2O)c(=O)n1 [6-azacytidine]
- Km (CDA from human liver): 4200 µM

Compound: Nc1ccn([C@@H]2O[C@H](CO)[C@@H](O)C2(F)F)c(=O)n1 [gemcitabine, 2′-deoxy-2′,2′-difluorocytidine]
- Km (CDA): 95.7 ± 8.4 µM
- Estimated T1/2 of gemcitabine (cytidine deaminase (CDA); Gemcitabine with CDA in Tris-HCl buffer at 37° C.): <35 min
- half-life (cytidine deaminase (CDA); pH 7.4, Gemcitabine with CDA and ER-876437 in Tris-HCl buffer at 37° C.): > 780 min
- half-life (cytidine deaminase (CDA); pH 7.4, Gemcitabine with CDA in Tris-HCl buffer at 37° C.): < 35 min
- reduction in gemcitabine concentration (cytidine deaminase (CDA)): no reduction
- reduction in gemcitabine concentration (cytidine deaminase (CDA); listed as Gemcitabine): did not show any degradation
- concentration of gemcitabine (cytidine deaminase (CDA); presence of CDA, within 1 hour): ~0 % control
- regressions or tumor free survivors at day 41 ([1]; gemcitabine 1 mg/kg PO alone or ER-876437 10 mg/kg PO alone): no regressions or tumor free survivors
- effect on tumor growth (FIG. 3) ([1]; gemcitabine 1 mg/kg PO and/or ER-876437 10 mg/kg PO (30 minutes prior)): limited efficacy
- TGD (tumor growth delay) ([1]; gemcitabine 1 mg/kg PO and/or ER-876437 10 mg/kg PO (30 minutes prior), delay vs vehicle to reach 342.14 mm^3): 2 days
